Laboratory results as given in patent US20260297081A1, “COMPOUNDS AND METHODS OF TREATING CANCERS” (Cullgen Inc., priority 2023, published 2026).

tested on: MCF7 cells; experiment: Anti-proliferation (viability) of MCF7 cells (Table 7, FIG. 2B); format: cell-based; details: Homo sapiens, MCF7, MCF7 cells, 3-6 days, 10-point serial dilution; read-out: GI IC50 in MCF-7

First: CC(=O)c1c(C)c2cnc(Nc3ccc(N4CCN(C5CCN(C(=O)C6CC7(CC(Nc8nc(NC(C)C)ccc8C(=O)Nc8ccc(N(C)C)nn8)C7)C6)C5)CC4)cn3)nc2n(C2CCCC2)c1=O (centres unmarked) [CPD-400, 2-((6-(3-(4-(6-((6-acetyl-8-cyclopentyl-5-methyl-7-oxo-7,8-dihydropyrido[2,3-d]pyrimidin-2-yl)amino)pyridin-3-yl)piperazin-1-yl)pyrrolidine-1-carbonyl)spiro[3.3]heptan-2-yl)amino)-N-(6-(dimethylamino)pyridazin-3-yl)-6-(isopropylamino)nicotinamide]
Second: CC(=O)c1c(C)c2cnc(Nc3ccc(N4CCN(C5CN(C(=O)C6CC7(CC(Nc8nc(NC(C)C)ccc8C(=O)Nc8ccc(N(C)C)nn8)C7)C6)C5)CC4)cn3)nc2n(C2CCCC2)c1=O (centres unmarked) [CPD-401, 2-((6-(3-(4-(6-((6-acetyl-8-cyclopentyl-5-methyl-7-oxo-7,8-dihydropyrido[2,3-d]pyrimidin-2-yl)amino)pyridin-3-yl)piperazin-1-yl)azetidine-1-carbonyl)spiro[3.3]heptan-2-yl)amino)-N-(6-(dimethylamino)pyridazin-3-yl)-6-(isopropylamino)nicotinamide]
The IC50 of the first is lower: 50 to 100 nM for the first, over 100 nM for the second. The first is the more potent here.

First: CC(=O)c1c(C)c2cnc(Nc3ccc(N4CCN(C5CCN(C(=O)[C@H]6CC[C@@H](Nc7nc(NC(C)C)ccc7C(=O)Nc7ccc(N(C)C)nn7)C6)C5)CC4)cn3)nc2n(C2CCCC2)c1=O (stereo partly drawn) [CPD-403, 2-(((1R,3S)-3-(3-(4-(6-((6-acetyl-8-cyclopentyl-5-methyl-7-oxo-7,8-dihydropyrido[2,3-d]pyrimidin-2-yl)amino)pyridin-3-yl)piperazin-1-yl)pyrrolidine-1-carbonyl)cyclopentyl)amino)-N-(6-(dimethylamino)pyridazin-3-yl)-6-(isopropylamino)nicotinamide]
Second: CC(=O)c1c(C)c2cnc(Nc3ccc(N4CCC5(CC4)CC5C(=O)NC4CCC(Nc5nc(NC(C)C)ccc5C(=O)Nc5ccc(N(C)C)nn5)C4)cn3)nc2n(C2CCCC2)c1=O (centres unmarked) [CPD-417, 6-(6-((6-acetyl-8-cyclopentyl-5-methyl-7-oxo-7,8-dihydropyrido[2,3-d]pyrimidin-2-yl)amino)pyridin-3-yl)-N-(3-((3-((6-(dimethylamino)pyridazin-3-yl)carbamoyl)-6-(isopropylamino)pyridin-2-yl)amino)cyclopentyl)-6-azaspiro[2.5]octane-1-carboxamide]
The IC50 of the first is lower: 50 to 100 nM for the first, over 100 nM for the second.

Going from `CC(=O)c1c(C)c2cnc(N(C)c3ccc(N4CCN(CCC(=O)N5CC6(CC(Nc7nc(NC(C)C)ccc7C(=O)Nc7cc(C)n(C)n7)C6)C5)CC4)cn3)nc2n(C2CCCC2)c1=O` [CPD-404, 2-((2-(3-(4-(6-((6-acetyl-8-cyclopentyl-5-methyl-7-oxo-7,8-dihydropyrido[2,3-d]pyrimidin-2-yl)(methyl)amino)pyridin-3-yl)piperazin-1-yl)propanoyl)-2-azaspiro[3.3]heptan-6-yl)amino)-N-(1,5-dimethyl-1H-pyrazol-3-yl)-6-(isopropylamino)nicotinamide] to `CC(=O)c1c(C)c2cnc(Nc3ccc(N4CCC5(CC4)CC5C(=O)N4CC5(CC(Nc6nc(NC(C)C)ccc6C(=O)Nc6cc(C)n(C)n6)C5)C4)cn3)nc2n(C2CCCC2)c1=O` (centres unmarked) [CPD-415, 2-((2-(6-(6-((6-acetyl-8-cyclopentyl-5-methyl-7-oxo-7,8-dihydropyrido[2,3-d]pyrimidin-2-yl)amino)pyridin-3-yl)-6-azaspiro[2.5]octane-1-carbonyl)-2-azaspiro[3.3]heptan-6-yl)amino)-N-(1,5-dimethyl-1H-pyrazol-3-yl)-6-(isopropylamino)nicotinamide], the IC50 falls from over 100 nM to under 50 nM.

Going from `[2H]C([2H])([2H])Nc1ccc(C(=O)Nc2cn(C)c(C3CC3)n2)c(NC2CC3(CC(NC(=O)C(C)N4CCN(c5ccc(Nc6ncc7c(C)c(C(C)=O)c(=O)n(C8CCCC8)c7n6)nc5)CC4)C3)C2)n1` (centres unmarked) [CPD-405, 2-((6-(2-(4-(6-((6-acetyl-8-cyclopentyl-5-methyl-7-oxo-7,8-dihydropyrido[2,3-d]pyrimidin-2-yl)amino)pyridin-3-yl)piperazin-1-yl)propanamido)spiro[3.3]heptan-2-yl)amino)-N-(2-cyclopropyl-1-methyl-1H-imidazol-4-yl)-6-((methyl-d3)amino)nicotinamide] to `CC(=O)c1c(C)c2cnc(Nc3ccc(N4CCN(C(C)C(=O)NC5CC6(C5)CC(Nc5nc(NC(C)C)ccc5C(=O)Nc5ccc(N(C)C)nn5)C6)CC4)cn3)nc2n(C2CCCC2)c1=O` (centres unmarked) [CPD-406, 2-((6-(2-(4-(6-((6-acetyl-8-cyclopentyl-5-methyl-7-oxo-7,8-dihydropyrido[2,3-d]pyrimidin-2-yl)amino)pyridin-3-yl)piperazin-1-yl)propanamido)spiro[3.3]heptan-2-yl)amino)-N-(6-(dimethylamino)pyridazin-3-yl)-6-(isopropylamino)nicotinamide], the IC50 falls from over 100 nM to under 50 nM.

`CC(=O)c1c(C)c2cnc(Nc3ccc(N4CCC5(CC4)CC5C(=O)N4CCC(Nc5nc(NC(C)C)ccc5C(=O)Nc5cc(C)n(C)n5)CC4)cn3)nc2n(C2CCCC2)c1=O` (centres unmarked) [CPD-408, 2-((1-(6-(6-((6-acetyl-8-cyclopentyl-5-methyl-7-oxo-7,8-dihydropyrido[2,3-d]pyrimidin-2-yl)amino)pyridin-3-yl)-6-azaspiro[2.5]octane-1-carbonyl)piperidin-4-yl)amino)-N-(1,5-dimethyl-1H-pyrazol-3-yl)-6-(isopropylamino)nicotinamide] and `CC(=O)c1c(C)c2cnc(Nc3ccc(N4CCC5(CC4)CC5C(=O)N4CCC(Nc5nc(NC(C)C)ccc5C(=O)Nc5cc(C)on5)CC4)cn3)nc2n(C2CCCC2)c1=O` (centres unmarked) [CPD-419, 2-((1-(6-(6-((6-acetyl-8-cyclopentyl-5-methyl-7-oxo-7,8-dihydropyrido[2,3-d]pyrimidin-2-yl)amino)pyridin-3-yl)-6-azaspiro[2.5]octane-1-carbonyl)piperidin-4-yl)amino)-6-(isopropylamino)-N-(5-methylisoxazol-3-yl)nicotinamide] cannot be ordered by IC50: under 50 nM for the first, under 50 nM for the second.

First: CC(=O)c1c(C)c2cnc(Nc3ccc(N4CCC5(CC4)CC5C(=O)N4CCC(Nc5nc(NC(C)C)ccc5C(=O)Nc5cn(C)c(C6CC6)n5)CC4)cn3)nc2n(C2CCCC2)c1=O (centres unmarked) [CPD-409, 2-((1-(6-(6-((6-acetyl-8-cyclopentyl-5-methyl-7-oxo-7,8-dihydropyrido[2,3-d]pyrimidin-2-yl)amino)pyridin-3-yl)-6-azaspiro[2.5]octane-1-carbonyl)piperidin-4-yl)amino)-N-(2-cyclopropyl-1-menthyl-1H-imidazol-4-yl)-6-(isopropylamino)nicotinamide]
Second: CC(=O)c1c(C)c2cnc(Nc3ccc(N4CCC5(CC4)CC5C(=O)N4CC5(CC(Nc6nc(NC(C)C)ccc6C(=O)Nc6cn(C)c(C7CC7)n6)C5)C4)cn3)nc2n(C2CCCC2)c1=O (centres unmarked) [CPD-412, 2-((2-(6-(6-((6-acetyl-8-cyclopentyl-5-methyl-7-oxo-7,8-dihydropyrido[2,3-d]pyrimidin-2-yl)amino)pyridin-3-yl)-6-azaspiro[2.5]octane-1-carbonyl)-2-azaspiro[3.3]heptan-6-yl)amino)-N-(2-cyclopropyl-1-methyl-1H-imidazol-4-yl)-6-(isopropylamino)nicotinamide]
The IC50 of the first is lower: under 50 nM for the first, over 100 nM for the second.

`CC(=O)c1c(C)c2cnc(Nc3ccc(N4CCN(CC(=O)NC(C)(C)C5CC(Nc6nc(NC(C)C)ccc6C(=O)Nc6cc(C)on6)C5)CC4)cn3)nc2n(C2CCCC2)c1=O` (centres unmarked) [CPD-410, 2-((3-(2-(2-(4-(6-((6-acetyl-8-cyclopentyl-5-methyl-7-oxo-7,8-dihydropyrido[2,3-d]pyrimidin-2-yl)amino)pyridin-3-yl)piperazin-1-yl)acetamido)propan-2-yl)cyclobutyl)amino)-6-(isopropylamino)-N-(5-methylisoxazol-3-yl)nicotinamide] and `CC(=O)c1c(C)c2cnc(Nc3ccc(N4CCC5(CC4)CC5C(=O)NC4CC(Nc5nc(NC(C)C)ccc5C(=O)Nc5ccc(N(C)C)nn5)C4)cn3)nc2n(C2CCCC2)c1=O` (centres unmarked) [CPD-413, 6-(6-((6-acetyl-8-cyclopentyl-5-methyl-7-oxo-7,8-dihydropyrido[2,3-d]pyrimidin-2-yl)amino)pyridin-3-yl)-N-(3-((3-((6-(dimethylamino)pyridazin-3-yl)carbamoyl)-6-(isopropylamino)pyridin-2-yl)amino)cyclobutyl)-6-azaspiro[2.5]octane-1-carboxamide] cannot be ordered by IC50: over 100 nM for the first, over 100 nM for the second.

First: CNc1ccc(C(=O)Nc2ccc(N(C)C)nn2)c(NC2CCC3(CC(NC(=O)CN4CCN(c5ccc(Nc6ncc7c(C)c(C(C)=O)c(=O)n(C8CCCC8)c7n6)nc5)CC4)C3)C2)n1 (centres unmarked) [CPD-416, 2-((2-(2-(4-(6-((6-acetyl-8-cyclopentyl-5-methyl-7-oxo-7,8-dihydropyrido[2,3-d]pyrimidin-2-yl)amino)pyridin-3-yl)piperazin-1-yl)acetamido)spiro[3.4]octan-6-yl)amino)-N-(6-(dimethylamino)pyridazin-3-yl)-6-(methylamino)nicotinamide]
Second: CC(=O)c1c(C)c2cnc(Nc3ccc(N4CC5(CN(CC(=O)N6CCC(Nc7nc(NC(C)C)ccc7C(=O)Nc7ccc(N(C)C)nn7)CC6)C5)C4)cn3)nc2n(C2CCCC2)c1=O [CPD-418, 2-((1-(2-(6-(6-((6-acetyl-8-cyclopentyl-5-methyl-7-oxo-7,8-dihydropyrido[2,3-d]pyrimidin-2-yl)amino)pyridin-3-yl)-2,6-diazaspiro[3.3]heptan-2-yl)acetyl)piperidin-4-yl)amino)-N-(6-(dimethylamino)pyridazin-3-yl)-6-(isopropylamino)nicotinamide]
The IC50 of the first is higher: over 100 nM for the first, under 50 nM for the second. The second is the more potent here.

For `CC(=O)c1c(C)c2cnc(Nc3ccc(CN4CCN(CC(=O)N5CCC(Nc6nc(NC(C)C)ccc6C(=O)Nc6cn(C)c(C7CC7)n6)CC5)CC4)cn3)nc2n(C2CCCC2)c1=O` [CPD-420, 2-((1-(2-(4-((6-((6-acetyl-8-cyclopentyl-5-methyl-7-oxo-7,8-dihydropyrido[2,3-d]pyrimidin-2-yl)amino)pyridin-3-yl)methyl)piperazin-1-yl)acetyl)piperidin-4-yl)amino)-N-(2-cyclopropyl-1-methyl-1H-imidazol-4-yl)-6-(isopropylamino)nicotinamide], the IC50 was over 100 nM.
